How the values were obtained:
Settings in all cases: exposure time: 72 h
E57 [1] = patient-derived glioblastoma stem cells of mesenchymal subtype; assay: phenotypic distance (Euclidean, principal components) from DMSO controls (arbitrary units); higher = stronger morphological change
E28 [2] = patient-derived glioblastoma stem cells of classical subtype; assay: as above
E34 [3] = patient-derived glioblastoma stem cells of proneural subtype; assay: as above
E13 [4] = patient-derived glioblastoma stem cells of classical subtype; assay: as above
FT3469 [5] = normal neural stem cell line; assay: as above
E21 [6] = patient-derived glioblastoma stem cells of mesenchymal subtype; assay: as above
E31 [7] = patient-derived glioblastoma stem cells of proneural subtype; assay: as above
E57 [8] = assay: surviving fraction (nuclei count normalised to DMSO); higher = more cells surviving (less toxic)
E28 [9] = assay: as above
E34 [10] = assay: as above
E13 [11] = assay: as above
FT3469 [12] = assay: as above
E21 [13] = assay: as above
E31 [14] = assay: as above
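Wherever phenotypic distance (Euclidean, principal components) from DMSO controls is given: cell Painting imaging in 384-well plates, CellProfiler features reduced to at least 20 principal components, Euclidean distance versus same-plate DMSO vehicle wells (0.1% v/v), median over six images per well.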
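Wherever surviving fraction (nuclei count normalised to DMSO) is given: nuclei counted by high-content imaging of Hoechst-stained cells in laminin-coated 384-well plates, relative to 0.1% DMSO vehicle wells, with staurosporine as cell-death control.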

CN1C(=O)CC(c2ccccc2)C1=O (stereo unspecified) [Phensuximide]
Settings | phenotypic distance | surviving fraction
E13 [4], 4.1 nM | 1.82 | –
E13 [4], 12.3 nM | 4.3 | –
E13 [4], 37 nM | 2.63 | –
E13 [4], 111.1 nM | 0.682 | –
E13 [4], 333.3 nM | 0.274 | –
E13 [4], 1000 nM | 0.544 | –
E13 [4], 3000 nM | 0.597 | –
E13 [11], 4.1 nM | – | 0.921
E13 [11], 12.3 nM | – | 0.916
E13 [11], 37 nM | – | 1.01
E13 [11], 111.1 nM | – | 1
E13 [11], 333.3 nM | – | 1
E13 [11], 1000 nM | – | 1.06
E13 [11], 3000 nM | – | 0.927
E21 [6], 4.1 nM | 0.59 | –
E21 [6], 12.3 nM | 0.489 | –
E21 [6], 37 nM | 0.352 | –
E21 [6], 111.1 nM | 0.519 | –
E21 [6], 333.3 nM | 0.385 | –
E21 [6], 1000 nM | 0.686 | –
E21 [6], 3000 nM | 0.387 | –
E21 [13], 4.1 nM | – | 0.998
E21 [13], 12.3 nM | – | 0.996
E21 [13], 37 nM | – | 1.03
E21 [13], 111.1 nM | – | 1.04
E21 [13], 333.3 nM | – | 1
E21 [13], 1000 nM | – | 1.09
E21 [13], 3000 nM | – | 0.963
E28 [2], 4.1 nM | 0.664 | –
E28 [2], 12.3 nM | 0.467 | –
E28 [2], 37 nM | 0.453 | –
E28 [2], 111.1 nM | 0.603 | –
E28 [2], 333.3 nM | 0.45 | –
E28 [2], 1000 nM | 0.513 | –
E28 [2], 3000 nM | 0.714 | –
E28 [9], 4.1 nM | – | 1.07
E28 [9], 12.3 nM | – | 1.03
E28 [9], 37 nM | – | 1.15
E28 [9], 111.1 nM | – | 1.09
E28 [9], 333.3 nM | – | 1
E28 [9], 1000 nM | – | 0.995
E28 [9], 3000 nM | – | 1.2
E31 [7], 4.1 nM | 0.79 | –
E31 [7], 12.3 nM | 0.39 | –
E31 [7], 37 nM | 0.726 | –
E31 [7], 111.1 nM | 0.491 | –
E31 [7], 333.3 nM | 0.604 | –
E31 [7], 1000 nM | 0.913 | –
E31 [7], 3000 nM | 0.717 | –
E31 [14], 4.1 nM | – | 1.08
E31 [14], 12.3 nM | – | 1.07
E31 [14], 37 nM | – | 1.1
E31 [14], 111.1 nM | – | 1.01
E31 [14], 333.3 nM | – | 1.14
E31 [14], 1000 nM | – | 1.13
E31 [14], 3000 nM | – | 0.991
E34 [3], 4.1 nM | 0.49 | –
E34 [3], 12.3 nM | 0.73 | –
E34 [3], 37 nM | 0.867 | –
E34 [3], 111.1 nM | 0.657 | –
E34 [3], 333.3 nM | 1.01 | –
E34 [3], 1000 nM | 0.819 | –
E34 [3], 3000 nM | 0.663 | –
E34 [10], 4.1 nM | – | 0.918
E34 [10], 12.3 nM | – | 1.14
E34 [10], 37 nM | – | 0.912
E34 [10], 111.1 nM | – | 0.81
E34 [10], 333.3 nM | – | 1.16
E34 [10], 1000 nM | – | 1.1
E34 [10], 3000 nM | – | 1.1
E57 [1], 4.1 nM | 0.764 | –
E57 [1], 12.3 nM | 0.516 | –
E57 [1], 37 nM | 0.543 | –
E57 [1], 111.1 nM | 0.342 | –
E57 [1], 333.3 nM | 0.878 | –
E57 [1], 1000 nM | 0.346 | –
E57 [1], 3000 nM | 0.811 | –
E57 [8], 4.1 nM | – | 1.02
E57 [8], 12.3 nM | – | 1.06
E57 [8], 37 nM | – | 1.05
E57 [8], 111.1 nM | – | 1.03
E57 [8], 333.3 nM | – | 1.05
E57 [8], 1000 nM | – | 1.04
E57 [8], 3000 nM | – | 0.978
FT3469 [5], 4.1 nM | 1.58 | –
FT3469 [5], 12.3 nM | 0.664 | –
FT3469 [5], 37 nM | 0.821 | –
FT3469 [5], 111.1 nM | 0.515 | –
FT3469 [5], 333.3 nM | 0.721 | –
FT3469 [5], 1000 nM | 0.254 | –
FT3469 [5], 3000 nM | 0.402 | –
FT3469 [12], 4.1 nM | – | 0.946
FT3469 [12], 12.3 nM | – | 0.989
FT3469 [12], 37 nM | – | 1
FT3469 [12], 111.1 nM | – | 1
FT3469 [12], 333.3 nM | – | 0.985
FT3469 [12], 1000 nM | – | 1.01
FT3469 [12], 3000 nM | – | 1.15

CCCCCCCCCCCCCC(=O)O[C@@H]1[C@@H](C)[C@@]2(O)[C@@H](C=C(CO)C[C@]3(O)C(=O)C(C)=C[C@@H]23)[C@@H]2C(C)(C)[C@]12OC(C)=O [Phorbol 12-myristate 13-acetate]
Settings | phenotypic distance | surviving fraction
E13 [4], 4.1 nM | 2.62 | –
E13 [4], 12.3 nM | 2.5 | –
E13 [4], 37 nM | 2.61 | –
E13 [4], 111.1 nM | 2.82 | –
E13 [4], 333.3 nM | 1.86 | –
E13 [4], 1000 nM | 2.26 | –
E13 [4], 3000 nM | 2.58 | –
E13 [11], 4.1 nM | – | 0.681
E13 [11], 12.3 nM | – | 0.64
E13 [11], 37 nM | – | 0.728
E13 [11], 111.1 nM | – | 0.596
E13 [11], 333.3 nM | – | 0.708
E13 [11], 1000 nM | – | 0.576
E13 [11], 3000 nM | – | 0.47
E21 [6], 4.1 nM | 2.4 | –
E21 [6], 12.3 nM | 2.57 | –
E21 [6], 37 nM | 2.24 | –
E21 [6], 111.1 nM | 2.1 | –
E21 [6], 333.3 nM | 2.01 | –
E21 [6], 1000 nM | 1.76 | –
E21 [6], 3000 nM | 6.77 | –
E21 [13], 4.1 nM | – | 0.677
E21 [13], 12.3 nM | – | 0.88
E21 [13], 37 nM | – | 0.786
E21 [13], 111.1 nM | – | 0.68
E21 [13], 333.3 nM | – | 0.75
E21 [13], 1000 nM | – | 0.775
E21 [13], 3000 nM | – | 0.0234
E28 [2], 4.1 nM | 2.11 | –
E28 [2], 12.3 nM | 1.89 | –
E28 [2], 37 nM | 1.72 | –
E28 [2], 111.1 nM | 1.44 | –
E28 [2], 333.3 nM | 1.52 | –
E28 [2], 1000 nM | 1.21 | –
E28 [2], 3000 nM | 4.49 | –
E28 [9], 4.1 nM | – | 0.75
E28 [9], 12.3 nM | – | 0.65
E28 [9], 37 nM | – | 0.725
E28 [9], 111.1 nM | – | 0.795
E28 [9], 333.3 nM | – | 0.815
E28 [9], 1000 nM | – | 0.668
E28 [9], 3000 nM | – | 0.383
E31 [7], 4.1 nM | 3.22 | –
E31 [7], 12.3 nM | 3.36 | –
E31 [7], 37 nM | 2.74 | –
E31 [7], 111.1 nM | 1.67 | –
E31 [7], 333.3 nM | 1.98 | –
E31 [7], 1000 nM | 1.94 | –
E31 [7], 3000 nM | 6.13 | –
E31 [14], 4.1 nM | – | 1.07
E31 [14], 12.3 nM | – | 1.06
E31 [14], 37 nM | – | 1.23
E31 [14], 111.1 nM | – | 1.01
E31 [14], 333.3 nM | – | 1.07
E31 [14], 1000 nM | – | 0.994
E31 [14], 3000 nM | – | 0.0149
E34 [3], 4.1 nM | 4.26 | –
E34 [3], 12.3 nM | 4.21 | –
E34 [3], 37 nM | 3.53 | –
E34 [3], 111.1 nM | 3.9 | –
E34 [3], 333.3 nM | 2.78 | –
E34 [3], 1000 nM | 2.96 | –
E34 [3], 3000 nM | 4.34 | –
E34 [10], 4.1 nM | – | 0.524
E34 [10], 12.3 nM | – | 0.516
E34 [10], 37 nM | – | 0.618
E34 [10], 111.1 nM | – | 0.488
E34 [10], 333.3 nM | – | 0.688
E34 [10], 1000 nM | – | 0.48
E34 [10], 3000 nM | – | 0.478
E57 [1], 4.1 nM | 7.04 | –
E57 [1], 12.3 nM | 6.41 | –
E57 [1], 37 nM | 5.79 | –
E57 [1], 111.1 nM | 8.21 | –
E57 [1], 333.3 nM | 6.38 | –
E57 [1], 1000 nM | 6.18 | –
E57 [1], 3000 nM | 11.1 | –
E57 [8], 4.1 nM | – | 0.331
E57 [8], 12.3 nM | – | 0.32
E57 [8], 37 nM | – | 0.374
E57 [8], 111.1 nM | – | 0.233
E57 [8], 333.3 nM | – | 0.369
E57 [8], 1000 nM | – | 0.367
E57 [8], 3000 nM | – | 0.108
FT3469 [5], 4.1 nM | 3.13 | –
FT3469 [5], 12.3 nM | 2.56 | –
FT3469 [5], 37 nM | 3.38 | –
FT3469 [5], 111.1 nM | 2.45 | –
FT3469 [5], 333.3 nM | 1.86 | –
FT3469 [5], 1000 nM | 2.16 | –
FT3469 [5], 3000 nM | 4.11 | –
FT3469 [12], 4.1 nM | – | 0.75
FT3469 [12], 12.3 nM | – | 0.728
FT3469 [12], 37 nM | – | 0.729
FT3469 [12], 111.1 nM | – | 0.701
FT3469 [12], 333.3 nM | – | 0.832
FT3469 [12], 1000 nM | – | 0.791
FT3469 [12], 3000 nM | – | 0.571
